Test results taken from patent US8623377B2, “Joint-homing peptides and uses thereof” (University of Maryland, Baltimore, priority 2011, dated 2014).

Columns and labels:
[1] = test system: human synovial tissue engrafted s.c.; details: human synovial tissue engrafted s.c. in SCID mice; cited from earlier work
HUVECs = assay: Endothelial tube (tubule) formation on Matrigel with VEGF; format: cell-based, human; details: VEGF 10 ng/mL, peptide 0-100 μg/mL
Method: FIG. 4A: Draining lymph node leukocytes from arthritic rats were dye-tagged with PKH67 and injected i.v. into arthritic rats. One group of rats was left untreated, and the other groups were treated with ADK or NQR peptide. After 24 hours, the synovium-infiltrating cells (SICs) were harvested from the joints, subjected to cytospin, and analyzed by fluorescence microscopy (left). In parallel, another set of synovium-infiltrating cells were stained with PE-labeled anti-CD3 or anti-CD 11b/c+ antibody and analyzed by flow cytometry (right). FIG. 4B: HUVECs were cultured on Matrigel-coated wells for 24 hours in the presence of VEGF (10 ng/mL) and various concentrations (0-100 μg/mL) of NQR (left), ADK (center), and RGD (right) peptides. The branches of vessel-like tubes were counted. A reprensentative set of results is shown. *P<0.05, compared with the VEGF-alone control.
HUVECs (1×10^4) were cultured in 80 μL/well of growth factor-reduced Matrigel (BD Biosciences) in a 96-well plate in 100 μL/well of F-12K medium (with no supplements). These cells were then treated for 20 h with VEGF (R&D Systems) in the presence or absence of different concentrations of peptides (NQR, ADK, or RGD). Tubule formation was observed under a microscope, quantitated, and photographed.

[2] = test system: HUVECs attachment to vitronectin; assay: Attachment of HUVECs to vitronectin; format: cell-based, human; details: peptide 30-800 μg/mL, 1 h on vitronectin-coated wells
Method: HUVECs were first suspended in F-12K medium containing the indicated concentrations of NQR, AK or RGD peptide and then incubated for 1 h in microtiter wells coated with vitronectin. The number of cells that attached to vitronectin was quantified. The results of three independent experiments are shown. *P<0.05, compared with the baseline control.
The attachment of HUVECs to vitrnectin was quantified as described (37, 38). Microtiter wells were coated overnight at 4° C. with 2 μg/mL of vitronectin (BD Biosciences). These wells were then blocked for 1 h at 37° C. with 10 mg/mL of BSA (Sigma-Aldrich). In parallel, HUVECs (1.5×10^5 cells/mL) suspended in F-12K medium containing 10% FBS were incubated for 15 min at 37° C. with different concentrations (30-800 μg/mL) of NQR, ADK, or RGD peptide. Thereafter, this cell suspension 100 μL/well) was added to the vitronectin-coated wells, followed by incubation at 37° C. for 1 h. After washing, the number of attached cells was determined using crystal violet (Fisher Scientific).

ERK1/2 = assay: VEGF-induced signaling in HUVECs, Western blot p-ERK1/2; format: cell-based, human; details: peptide 10, 50, 100 μg/mL 1 h, then VEGF 10 ng/mL 20 min
Text: (§1) FIG. 6A: HUVECs were stimulated with VEGF and treated with the indicated concentrations of peptides. Phosphorylated ERK1/2 and Akt, as well as total ERK1/2 and Akt, were detected by Western blot analysis. FIG. 6B: Thereafter, p-ERK1/2 and p-Akt were quantified by densitometry, normalized to total ERK1/2 (left) and Akt (right), respectively, and compared with cells in serum-free medium. The results of a representative experiment from a set of three independent experiments are shown. *P<0.05, compared with the positive control.
(§2) HUVECs were grown in F-12K medium in the presence of endothelial cell growth supplement (ECGS) (BD Biosciences) and 15% FBS. Confluent cells were starved in basal medium (without ECGS and FBS) for 6 h. Then the cells were pretreated for 1 h with different concentrations (10, 50, and 100 μg/mL) of a peptide (NQR, ADK, or RGD) in fresh basal medium, followed by treatment with VEGF (10 ng/mL) for another 20 min. The conditional medium was discarded, and the cells were lysed using a lysis buffer containing protease inhibitors and phosphatase inhibitors. The cell lysate was then centrifuged, and the resulting supernatant was used for analysis of signaling molecules using specific antibodies to human pERK1/2, ERK1/2, pAkt, Akt, and GAPDH (Cell Signaling Technology) by Western blot analysis. The intensity of the bands in the gel was quantified by densitometry. The levels of p-ERK1/2 and p-Akt were normalized to total ERK1/2 and Akt, respectively, and compared with cells in serum-free medium.

Akt = assay: VEGF-induced signaling in HUVECs, Western blot p-Akt; format: cell-based, human; details: peptide 10, 50, 100 μg/mL 1 h, then VEGF 10 ng/mL 20 min
Text: as §1, §2

[3] = test system: adjuvant arthritis in Lewis rats; assay: Antiarthritic activity in the adjuvant arthritis (AA) model, arthritic score; format: in vivo, Lewis rat
Method: FIG. 3A: Group of arthritic Lewis rats (n=4 per group) were injected with a peptide (AD, NQR, or RGD) or PBS i.v. on the days indicated by the arrows either at the onset or just after the onset of arthritis. The its were monitored regularly for the disease severity, presented as “arthritic score”. […] The sections were graded for histopathological features associated with arthritis. B, bone; C, cartilage, JS, joint space; SIC, synovium-infiltrating cells.
The synthetic peptide corresponding to the selected phage-encoded peptide was diluted in PBS and injected i.v. into Lewis rats beginning either at the onset or just after the onset of arthritis after Mtb injection. The peptide was injected to rats on alternate days at a dose of 1 or 2 mg/kg body weight. A total of three or four injections were given to each rat. Control animals received an equal volume of PBS. All rats were graded regularly for clinical signs of arthritis (36). The hind paws of these rats were harvested and processed for histopathological examination.
AA was induced in Lewis rats by immunizing them with 1 mg/rat of heat-killed M. tuberculosis H37Ra (Mtb; Difco) in 200 μL of mineral oil (Sigma-Aldrich) via s.c. injection at the base of the tail. Beginning on day 7 after immunization, the rats were observed regularly for signs of arthritis in the paws. The severity of arthritis was evaluated based on erythema and swelling as described previously. The highest score for each paw was 4, and the total maximum score for each rat was 16. The course of AA in the Lewis rat involved the following phases: incubation (days 0-8), onset (days 9-11), peak (days 15-18), and recovery (days 21-27).

αvβ3 = target: T1, αvβ3 (Oryctolagus cuniculus, UniProt A0A5F9CTL5+A0A5F9D0E2); details: intra-articular injection, rabbits with antigen-induced arthritis; cited from earlier work
T1 construct: host or cells: rabbit joints in vivo (intra-articular injection)
T1 sequence (A0A5F9D0E2 30-1047): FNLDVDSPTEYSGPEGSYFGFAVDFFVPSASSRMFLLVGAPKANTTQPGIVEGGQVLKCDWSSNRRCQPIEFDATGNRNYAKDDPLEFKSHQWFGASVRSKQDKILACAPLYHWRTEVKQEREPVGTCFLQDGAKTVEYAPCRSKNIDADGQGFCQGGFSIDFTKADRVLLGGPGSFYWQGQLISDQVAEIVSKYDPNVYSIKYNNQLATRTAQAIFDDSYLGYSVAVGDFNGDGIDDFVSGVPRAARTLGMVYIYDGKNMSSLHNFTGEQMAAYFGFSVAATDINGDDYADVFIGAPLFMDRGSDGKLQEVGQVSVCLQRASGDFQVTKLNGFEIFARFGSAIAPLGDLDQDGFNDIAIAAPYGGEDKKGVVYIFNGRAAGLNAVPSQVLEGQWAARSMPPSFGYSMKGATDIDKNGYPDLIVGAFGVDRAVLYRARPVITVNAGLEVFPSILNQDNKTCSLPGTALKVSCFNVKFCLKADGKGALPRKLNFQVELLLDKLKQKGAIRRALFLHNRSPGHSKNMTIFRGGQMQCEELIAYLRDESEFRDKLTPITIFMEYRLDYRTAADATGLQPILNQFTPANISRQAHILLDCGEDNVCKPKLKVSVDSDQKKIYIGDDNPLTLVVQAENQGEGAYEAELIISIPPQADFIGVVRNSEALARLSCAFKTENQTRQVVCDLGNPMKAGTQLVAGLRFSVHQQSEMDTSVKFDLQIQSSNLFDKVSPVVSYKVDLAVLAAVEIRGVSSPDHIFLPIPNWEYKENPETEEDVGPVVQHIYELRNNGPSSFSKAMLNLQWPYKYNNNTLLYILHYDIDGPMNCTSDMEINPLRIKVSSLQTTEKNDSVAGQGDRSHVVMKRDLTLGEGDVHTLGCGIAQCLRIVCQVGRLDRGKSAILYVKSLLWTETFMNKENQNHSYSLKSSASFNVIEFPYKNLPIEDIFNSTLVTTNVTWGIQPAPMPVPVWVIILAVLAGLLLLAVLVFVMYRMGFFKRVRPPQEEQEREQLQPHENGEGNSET
T1 sequence (A0A5F9CTL5 1-785): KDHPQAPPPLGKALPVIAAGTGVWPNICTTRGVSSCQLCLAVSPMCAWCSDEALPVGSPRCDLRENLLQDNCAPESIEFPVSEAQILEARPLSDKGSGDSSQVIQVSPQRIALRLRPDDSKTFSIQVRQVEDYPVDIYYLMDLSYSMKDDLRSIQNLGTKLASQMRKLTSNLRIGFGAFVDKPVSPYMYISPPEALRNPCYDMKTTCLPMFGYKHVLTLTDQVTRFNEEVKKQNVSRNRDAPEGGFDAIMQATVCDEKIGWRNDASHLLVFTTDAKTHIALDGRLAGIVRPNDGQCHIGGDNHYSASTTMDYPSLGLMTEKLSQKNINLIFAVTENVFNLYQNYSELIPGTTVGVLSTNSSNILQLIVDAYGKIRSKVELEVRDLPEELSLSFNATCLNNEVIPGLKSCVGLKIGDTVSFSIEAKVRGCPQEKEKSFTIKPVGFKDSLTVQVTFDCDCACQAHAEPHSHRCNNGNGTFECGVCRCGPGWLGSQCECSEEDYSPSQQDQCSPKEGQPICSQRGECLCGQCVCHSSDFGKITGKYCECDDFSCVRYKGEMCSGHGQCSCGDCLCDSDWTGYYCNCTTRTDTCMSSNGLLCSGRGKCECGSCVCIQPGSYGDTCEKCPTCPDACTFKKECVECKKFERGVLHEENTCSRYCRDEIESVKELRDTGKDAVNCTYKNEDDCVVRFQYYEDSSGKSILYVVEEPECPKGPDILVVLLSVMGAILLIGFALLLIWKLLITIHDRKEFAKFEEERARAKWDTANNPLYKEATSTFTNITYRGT

Substance	homing of peptide [1]	effect on endothelial cell tube formation (HUVECs)	effect on attachment of HUVECs to vitronectin [2]	effect on VEGF-induced pERK (ERK1/2)	effect on VEGF-induced pAkt (Akt)	difference in arthritic score versus PBS/ADK ([3]; from day 15 to day 27 (FIG. 3A center))	suppression of the arthritic process ([3]; i.v. injection around the time of onset of arthritis, 1 or 2 mg/kg on alternate days)	down-modulation of arthritis ([3]; injected just after the onset of AA)	effect on arthritis (αvβ3)
CKSTHDRLC [literature peptide homing to human synovial tissue engrafted in SCID mice]	homing to the human synovial tissue	–	–	–	–	–	–	–	–
CRNADKFPC (Synthetic peptide homing to joint in an animal) [ADK peptide, joint-homing phage-derived synthetic peptide]	–	had no effect	Neither peptide had any effect	had no effect	had no effect	–	–	–	–
RGDfK [RGD peptide, reference compound]	–	inhibited tube formation	significantly inhibited cell attachment	the opposite was observed	the opposite was observed	significant	also suppressed arthritis	effective in down-modulating arthritis	–
RGDfV	–	–	–	–	–	–	–	–	reduce clinical arthritis, synovial angiogenesis, and joint damage
